Laboratory results taken from US7022650B2, “4-trifluoromethylpyrazolyl-substituted pyridines and pyrimidines” (Bayer CropScience GmbH, priority 2002, dated 2006).

Experiments:
[1] = system: Veronica persica; assay: Weed plant herbicidal activity, pre-emergence; assay type: in vivo; conditions: 20 g of active substance per hectare, visual scoring after 3 to 4 weeks
Excerpt: (§1) 1. Weed plant herbicidal activity and crop plant tolerance, pre-emergence Seeds of monocot and dicot weed plants and of crop plants are placed in sandy loam soil in cardboard pots and are covered with soil. The compounds of the invention, formulated as wettable powders or emulsifiable concentrates, are then applied as an aqueous suspension or emulsion, respectively, in different dosages to the surface of the covering soil at an application rate of 600 to 800 l of water per ha (converted). Following treatment, the pots are placed in a greenhouse and kept under good growth conditions for the weeds. Visual scoring of the plant damage or emergence damage is made after the experimental plants have emerged, after an experimental period of 3 to 4 weeks, in comparison with untreated controls. […] At the same application rate this compound of the invention causes no damage to the crop plants Oryza sativa (rice) or Zea mays (maize).

[2] = system: Alopecurus myosuroides; assay: Weed plant herbicidal activity, pre-emergence; assay type: in vivo; conditions: 20 g of active substance per hectare, visual scoring after 3 to 4 weeks
Excerpt: as §1

[3] = system: Agropyrons repens; assay: Weed plant herbicidal activity, pre-emergence; assay type: in vivo; conditions: 20 g of active substance per hectare, visual scoring after 3 to 4 weeks
Excerpt: as §1

[4] = system: Galium aparine; assay: Weed plant herbicidal activity, pre-emergence; assay type: in vivo; conditions: 20 g of active substance per hectare, visual scoring after 3 to 4 weeks
Excerpt: as §1

[5] = system: Setaria viridis; assay: Weed plant herbicidal activity, pre-emergence; assay type: in vivo; conditions: 20 g of active substance per hectare, visual scoring after 3 to 4 weeks
Excerpt: as §1

[6] = system: Avena fatua; assay: Weed plant herbicidal activity, pre-emergence; assay type: in vivo; conditions: 20 g of active substance per hectare, visual scoring after 3 to 4 weeks
Excerpt: as §1

[7] = system: Digitaria sanguinalis; assay: Weed plant herbicidal activity, pre-emergence; assay type: in vivo; conditions: 20 g of active substance per hectare, visual scoring after 3 to 4 weeks
Excerpt: as §1

[8] = system: Amaranthus retroflexus; assay: Weed plant herbicidal activity, pre-emergence; assay type: in vivo; conditions: 20 g of active substance per hectare, visual scoring after 3 to 4 weeks
Excerpt: as §1

[9] = system: Sorghum halepense; assay: Weed plant herbicidal activity, pre-emergence; assay type: in vivo; conditions: 20 g of active substance per hectare, visual scoring after 3 to 4 weeks
Excerpt: as §1

[10] = system: Lolium multiflorum; assay: Weed plant herbicidal activity, pre-emergence; assay type: in vivo; conditions: 20 g of active substance per hectare, visual scoring after 3 to 4 weeks
Excerpt: as §1

[11] = system: Oryza sativa (rice); assay: Crop plant tolerance, pre-emergence; assay type: in vivo; conditions: 20 g of active substance per hectare, 3 to 4 weeks
Excerpt: as §1

[12] = system: Zea mays (maize); assay: Crop plant tolerance, pre-emergence; assay type: in vivo; conditions: 20 g of active substance per hectare, 3 to 4 weeks
Excerpt: as §1

[13] = system: Veronica persica; assay: Weed plant herbicidal activity, post-emergence; assay type: in vivo; conditions: three-leaf stage, 80 g of active substance per hectare, scored after 3 to 4 weeks
Protocol: (§2) 2. Weed plant herbicidal activity and crop plant tolerance, post-emergence Seeds of monocot and dicot weed plants and of crop plants are placed in sandy loam in cardboard pots, covered with soil, and grown under good growth conditions in a greenhouse. Two to three weeks after sowing, the experimental plants are treated at the three-leaf stage. The compounds of the invention, formulated as wettable powders or as emulsifiable concentrates, are sprayed at different dosages onto the surface of the green parts of the plants at an application rate of 600 to 800 l of water per ha (converted). After the experimental plants have stood in the greenhouse for 3 to 4 weeks under optimum growth conditions, the activity of the compounds is scored. […] At the same application rate this compound of the invention causes no damage to the crop plant Oryza sativa (rice) and 20% damage to Triticum aestivum (wheat).

[14] = system: Chenopodium album; assay: Weed plant herbicidal activity, post-emergence; assay type: in vivo; conditions: three-leaf stage, 80 g of active substance per hectare, scored after 3 to 4 weeks
Protocol: as §2

[15] = system: Matricaria inodora; assay: Weed plant herbicidal activity, post-emergence; assay type: in vivo; conditions: three-leaf stage, 80 g of active substance per hectare, scored after 3 to 4 weeks
Protocol: as §2

[16] = system: Digitaria sanguinalis; assay: Weed plant herbicidal activity, post-emergence; assay type: in vivo; conditions: three-leaf stage, 80 g of active substance per hectare, scored after 3 to 4 weeks
Protocol: as §2

[17] = system: Pharbitis purpureum; assay: Weed plant herbicidal activity, post-emergence; assay type: in vivo; conditions: three-leaf stage, 80 g of active substance per hectare, scored after 3 to 4 weeks
Protocol: as §2

[18] = system: Oryza sativa (rice); assay: Crop plant tolerance, post-emergence; assay type: in vivo; conditions: 80 g of active substance per hectare, 3 to 4 weeks
Protocol: as §2

[19] = system: Triticum aestivum (wheat); assay: Crop plant tolerance, post-emergence; assay type: in vivo; conditions: 80 g of active substance per hectare, 3 to 4 weeks
Protocol: as §2

melting point	Compound	activity against Veronica persica [1]	activity against Alopecurus myosuroides [2]	activity against Agropyrons repens [3]	activity against Galium aparine [4]	activity against Setaria viridis [5]	activity against Avena fatua [6]	activity against Digitaria sanguinalis [7]	activity against Amaranthus retroflexus [8]	activity against Sorghum halepense [9]	activity against Lolium multiflorum [10]	damage to the crop plant Oryza sativa (rice) [11]	damage to the crop plant Zea mays (maize) [12]	activity against Veronica persica [13]	activity against Chenopodium album [14]	activity against Matricaria inodora [15]	activity against Digitaria sanguinalis [16]	activity against Pharbitis purpureum [17]	damage to the crop plant Oryza sativa (rice) [18]	damage to Triticum aestivum (wheat) [19]
94 to 96 °C	Cc1cnc(-n2cc(C(F)(F)F)cn2)nc1Oc1csc(C(F)(F)F)c1 [1.8, 5-methyl-2-(4-trifluoromethyl-1H-1-pyrazolyl)-4-(5-trifluoromethyl-3-thienyloxy)pyrimidine]	–	–	–	–	–	–	–	–	–	–	–	–	–	–	–	–	–	–	–
109 to 111 °C	COc1cnc(-n2cc(C(F)(F)F)cn2)nc1Oc1csc(C(F)(F)F)c1 [Example No. 1.22, 5-methoxy-2-(4-trifluoromethyl-1H-1-pyrazolyl)-4-(5-trifluoromethyl-3-thienyloxy)pyrimidine]	at least 80%	at least 80%	at least 80%	at least 80%	at least 80%	at least 80%	at least 80%	at least 80%	at least 80%	at least 80%	no damage	no damage	at least 90%	at least 90%	at least 90%	at least 90%	at least 90%	no damage	20%
